# Measurements: US20260083769A1, “2-Aminopropane-1,3-Diol-Capped Cationic Peptoids for Nucleic Acid Delivery” (NUTCRACKER THERAPEUTICS, INC., priority 2022, published 2026)
# Like-named read-outs stand apart in the source and are kept apart here. Where a SMILES comes first, the peptide text is derived from it. [ ]: non-standard residue; d: D form. N(2-ethylhexyl)Gly = CCCCC(CC)CNCC(=O)O; Gly(N-dodecyl) = CCCCCCCCCCCCNCC(=O)O; N(CH(CH2OH)2)Gly = O=C(O)CNC(CO)CO; N(octyl)Gly = CCCCCCCCNCC(=O)O
# Assays:
# [1] = Apparent particle pKa, TNS fluorescence assay; format: physicochemical; conditions: Table 5; apparent particle pKa of delivery vehicle
# Procedure: The apparent particle pKa was assessed by a TNS fluorescence assay. Briefly, particles were diluted to 130 uM total lipid in TNS buffer ranging in pH 3-11 for 10 minutes with […] of TNS probe. The fluorescence was measured at room temperature in a plate reader ex 320/em 445. Fluorescence intensity was normalized to the minimal and maximal values and the pKa was determined by a 3 parameter fit to determine the half maximum of the curve.
# [2] = Percent encapsulated mRNA, RiboGreen assay; format: physicochemical; conditions: Table 5; delivery vehicle comprising the peptoid, Formulation D22, fLuc mRNA
# Summary of the method: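 Modified RiboGreen fluorescence assay on Fluc mRNA formulations diluted to 500 ng/ml in Tris-EDTA. Samples were read with and without Triton X-100 lysis (2% for 10 min in one protocol). Percent encapsulation was derived from the fluorescence ratio of intact versus lysed particles.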
# [3] = Particle size and polydispersity (PDI) of delivery vehicles by dynamic light scattering; format: physicochemical; conditions: Table 5; delivery vehicle comprising the peptoid, Formulation D22, fLuc mRNA
# Summary of the method: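 Delivery vehicle complexes were diluted in PBS to 2 ng/μL and measured by DLS. The cumulant fit of the correlation function gave PDI and hydrodynamic diameter in nm.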
# [4] = RBC hemolysis as metric for fusogenicity; format: cell-based; conditions: sheep red blood cells (RBCs), 5% v/v, Table 5, delivery vehicle, 37° C. 45 min
# Summary of the method: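 Sheep RBCs at 5% v/v in 20 mM citrate/140 mM NaCl pH 5.5 or PBS, exposed to LNPs at […] in well, 37 °C for 45 min. Supernatant absorbance at 425 nm; % hemolysis normalized to 2% Triton full lysis and buffer-only control.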
# [5] = Zeta potential of delivery vehicles; format: physicochemical; conditions: Table 5; delivery vehicle, pH 7 buffer; in mV (unit assumed)
# Procedure: In one particular instance, the size and polydispersity (PDI) of delivery vehicles was measured by dynamic light scattering in PBS using a DynaPro® plate reader III. The zeta potential of delivery vehicles was determined using Nano-ZS™ particle analyzer. Zeta sample was diluted to 30 uM total lipid in a weakly buffered solution of 10 mM HEPES, 10 mM MES, 10 mM ammonium acetate pH 7. Measurements were collected in duplicate for over 30 run with the voltage manually set to […]
# BALB/c mice = assay: In vivo fLuc mRNA expression after IV dose, whole body and organ bioluminescence; conditions: BALB/c mice, IV, luminescence 6 hours after dose, lipid block screen
# Description: In one particular instance, peptoids disclosed herein were formulated into delivery vehicles by first dissolving in ethanol along with DSPC, cholesterol, and DMG-PEG2000 at weight ratio of 20:1.8:7.2:1.8 (Formulation D22 in Table 3, above), then mixed with firefly luciferase (fLuc) mRNA dissolved in an aqueous buffer at a volume ratio of 1:3 via microfluidic nanoprecipitation on a turbulent mixing device, resulting in small, low dispersity particles. Physical particle properties were characterized. Delivery vehicles with initial sizes larger than 120 nm were not brought forward into in vivo screening as liver fenestrae primarily accommodate LNPs sized under 100 nm. In vivo expression of delivery vehicles comprising peptoids with varied headgroups was evaluated using fLuc expression in BALB/c mice 6 hours after IV dose (FIG. 1). […] The aminoethyl and aminopropyl headgroups both show preferential expression in lung (FIG. 2), potentially due to the high basicity of the pendant primary amine, as groups with higher pKas are known to accumulate in that organ. […] While spleen and lung selectivity merit further optimization for future therapeutic applications, liver-selective targets were used for further studies herein to prepare for systemic delivery of antibody targets and maximize their serum expression with anti-RSV cargo.
# Intravenous administration. The delivery vehicle complexes disclosed herein are effective for in vivo administration of Fluc mRNA to BALB/c mice through multiple routes of administration. In general, delivery system complexes were administered at a dose of 0.5 mg/kg via a tail-vein injection, and the resulting bioluminescence was quantified after 6 hours. Organ-specific bioluminescence was quantified by sacrificing the treated animal, dissecting out the organs of interest, and separately quantifying the resulting bioluminescence
# In one particular instance, to investigate how the peptoid lipid block impacts in vivo expression, delivery vehicles with diameter larger than 120 nm were excluded and remaining candidates were administered IV to BALB/c mice. Luminescence was measured after 6 hours and the resulting expression in liver, lung and spleen were quantified. Even without changing the cationic headgroup, luciferase expression spanned 4 orders of magnitude as a result of altering the lipid block in this series. […] In vivo expression of all candidates was then fit to a multi-parameter model containing the 4 input parameters to understand the individual contributions of each factor to overall performance. […] Contour plots of the impact of these factors on expression (all using Ehx as the branched/unsaturated monomer) are shown in FIG. 4.
# For imaging studies, female BALB/c mice (6-8 weeks old) were obtained and acclimatized for a minimum of 3 days prior to experiments. The animals were maintained on a 12 hour light cycle in a temperature and humidity controlled room. A daily health check was performed as well as food and water check. For dosing, mice were injected with 2.5 μg fLuc mRNA-containing delivery vehicles intravenously in 100 μL total injection volume. At 6 hours post-injection, mice were anesthetized with isoflurane, and injected intraperitoneally with 30 mg/mL D-luciferin at a dose of 10 μL per gram bodyweight intraperitoneally. Imaging was done 10 minutes post D-luciferin injection using an IVIS® Spectrum Imaging System. Immediately after in vivo imaging, mice were terminally bled by cardiac puncture and euthanized. The organs of interest were harvested, placed in black 24-well plates, and imaged. Living Image® software was used to quantify the total photon flux in regions of interest. For secreted protein studies, mice were injected with aRSV mRNA-containing delivery vehicles intravenously in 100 μL total injection volume. Mice were euthanized after 24 hours, with serum collection at 6 and 24 hours post-injection. […]
# [6] = pH 5, read-out: Hemolysis at pH 5
# [7] = pH 7, read-out: Hemolysis at pH 7
Structure (SMILES),pKa (TNS) [1],% Encapsulation [2] [%],PDI [3],Particle Size (nm) [3] [nm],"hemolysis at 45 min, 150 mM total lipid [4, 6] [%]","hemolysis at 45 min, 150 mM total lipid [4, 7] [%]",Zeta Potential [5],fLuc (luciferase) expression in vivo (BALB/c mice)
CCCCCCCCCCCCN(CC(=O)N(CC(N)=O)CC(CC)CCCC)C(=O)CN(CCCCCCCC)C(=O)CN(CC(CC)CCCC)C(=O)CN(CCCCCCCCCCCC)C(=O)CN(CCCCCCCC)C(=O)CNC(CO)CO (stereo not drawn) [Compound 35] (H-[N(CH(CH2OH)2)Gly][N(octyl)Gly][Gly(N-dodecyl)][N(2-ethylhexyl)Gly][N(octyl)Gly][Gly(N-dodecyl)][N(2-ethylhexyl)Gly]-NH2),5.937,76.1,0.082,90.7,4.5,5.1,−5.88,top expressers
CCCCCCN(CC(N)=O)C(=O)CN(CCCCCC)C(=O)CN(CCCCCC)C(=O)CN(CCCCCC)C(=O)CN(CCCCCC)C(=O)CN(CCCCCC)C(=O)CN(CCCCCC)C(=O)CN(CCCCCC)C(=O)CNC(CO)CO [Compound 14],6.825,57.3,Multimodal,2228.3,9.1,0.2,−3.14,–
